Holding throughout (assay): NCI tumour cell line growth inhibition, 48 h
Assay [1] concerns CAKI-1 renal.
The subject of assay [2] is PC-3 prostate.
In assay [3] the test system is HS 578T breast.
Assay [4] concerns NCI/ADR-RES ovarian.

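1) Cells in 96-well plates. 2) Compound, 48 h, 5 concentrations. 3) Linear interpolation between surrounding doses. 4) Unreached endpoint = highest concentration. The concentration for full growth arrest is given as TGI.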

Regarding `Cc1cc(C)n2nc3nc(N)c(C#N)c(-c4ccccc4)c3c2n1`, the TGI in assay [1], in assay [2], in assay [3] and in assay [4] was greater than 100 µM throughout.
Take `O=Cc1cn(CCCCCCCCCCCCn2cc(C=O)c3ccccc32)c2ccccc12`: the TGI in assay [1], in assay [2], in assay [3] and in assay [4] was greater than 100 µM throughout.
Turning to `CCOC(=O)c1c(-c2ccc(OC)cc2)c(C#N)c(=S)n(C2OC(COC(C)=O)C(OC(C)=O)C(OC(C)=O)C2OC(C)=O)c1-c1ccccc1` (stereo not drawn), the TGI in assay [1], in assay [2], in assay [3] and in assay [4] was greater than 100 µM in each case.
For `CC(=O)O[C@H]1C[C@H]2[C@@H](OC(C)=O)/C=C3\C[C@](C)(C(=O)[C@H](O)C(=C1C)C2(C)C)[C@@H](O)C[C@@H]3OC(=O)[C@H](O)[C@H](c1ccccc1)N(C)C`, the TGI in assay [1], in assay [2], in assay [3] and in assay [4] was greater than 100 µM throughout.
For `CS(=O)(=O)O[C@H]1CN2C[C@@H](O)[C@@H](O)[C@H]2[C@H]1CO`, the TGI in assay [1], in assay [2] and in assay [4] was greater than 100 µM each time.
Consider `CCCCN(CCCC)CC(O)c1cc(-c2ccc(C(F)(F)F)cc2)nc(-c2ccc(C(F)(F)F)cc2)c1` (stereo not drawn), for which the TGI in assay [1], in assay [2] and in assay [4] was greater than 100 µM throughout.
For `NC1CC(=O)c2c(Br)csc21` (stereo not drawn), the TGI in assay [1], in assay [2] and in assay [4] was greater than 100 µM in each case.
As for `N#Cc1c(-c2ccc(Cl)cc2)c2c([nH]c1=O)-c1ccccc1SC2`, the TGI in assay [1], in assay [2], in assay [3] and in assay [4] was greater than 100 µM each time.
Regarding `COc1cccc2c1OC(c1ccc(Cl)cc1)C([N+](=O)[O-])=C2` (stereo not drawn), the TGI stood at 10.7 µM in assay [1], 5.3 µM in assay [2], 13.4 µM in assay [3] and 39.5 µM in assay [4].
With `OC1[C@@H]2[C@@H](O)[C@H](O)[C@@H](O)N2C[C@@H]1O` (stereo partly drawn), the TGI in assay [1], in assay [2], in assay [3] and in assay [4] was greater than 100 µM in each case.
For the molecule `OCC1OC(c2cccc3cc(O)c(O)cc23)CC1O` (stereo not drawn), the TGI in assay [2], in assay [3] and in assay [4] was greater than 100 µM throughout.
Turning to `Oc1cn(-c2ccc(Cl)cc2)nc1-c1nnc(-c2ccccc2)o1`, the TGI in assay [1] was 11.1 µM; in assay [2], greater than 66.6 µM; in assay [3], 40.8 µM; in assay [4] it was 7 µM.
Taken in the same sequence, the figures for `O=C1NC(=O)C(c2c[nH]c3ccccc23)=C1c1cnc[nH]1` were greater than 100 µM, greater than 100 µM, greater than 100 µM and greater than 100 µM.
On to `CN(C(=O)C1=CCC2(CC1)OCCO2)c1ccccc1OS(=O)(=O)C(F)(F)F`, for which the TGI in assay [1], in assay [2] and in assay [4] was greater than 100 µM each time.
In the case of `COC(=O)c1cc2c3c(ccc2[nH]1)N(C(=O)c1cc2cc(OC)c(OC)c(OC)c2[nH]1)CC3CCl` (stereo not drawn), the TGI was greater than 100 µM in assay [1], greater than 100 µM in assay [2], greater than 100 µM in assay [3] and greater than 91.8 µM in assay [4].
On to `COc1ccccc1/C(=N\OCCC(=O)O)c1cccs1`, for which the TGI in assay [1], in assay [2], in assay [3] and in assay [4] was greater than 100 µM in each case.
For the molecule `CC(C)(Cl)C(Br)CCC(C)(Cl)C(Br)CBr` (stereo not drawn), the figures for the TGI in assay [2], in assay [3] and in assay [4] were 71 µM, 82.9 µM and 68 µM, respectively.
On to `COc1ccc(N2C(=O)CC(C3CC(C(C)(C)C)CCC3=O)C2=O)cc1` (stereo not drawn), for which the TGI in assay [1], in assay [2], in assay [3] and in assay [4] was greater than 100 µM in each case.
In the case of `C[N+](CCCl)(CCCl)Cc1cccc2cccc([N+](=O)[O-])c12`, the TGI in assay [1], in assay [2], in assay [3] and in assay [4] was greater than 100 µM throughout.
`CCCC(=O)n1[nH]c(=O)n(-c2ccc(Cl)cc2)c1=O`: the TGI in assay [1], in assay [2], in assay [3] and in assay [4] was greater than 100 µM each time.
Turning to `OC1(C(F)(F)F)OCCN=C1C(F)(F)F` (stereo not drawn), the TGI in assay [1] is greater than 100 µM; in assay [2], greater than 100 µM; in assay [3], 81.3 µM; in assay [4] it was greater than 100 µM.
As to `CCCCCCCCCC1(N=[N+]=[N-])C(=O)c2ccccc2N(C)C1=O` (stereo not drawn), the TGI in assay [1] is greater than 100 µM; in assay [2] it was greater than 100 µM; in assay [3], 83.8 µM; in assay [4] it was greater than 100 µM.
In the case of `COc1cc(C(=O)n2c3ccc(Br)cc3c3nc4ccccc4nc32)cc(OC)c1OC`, the TGI in assay [1], in assay [2] and in assay [4] was greater than 100 µM in each case.
`CCOC(=O)C1=C(C)N(Cc2ccc(Cl)cc2Cl)C2(O)C=CC(=O)C3C(=O)N(c4ccccc4)C(=O)C132` (stereo not drawn): the TGI in assay [1] turned out to be 9.36 µM; in assay [2] it was 3.55 µM; in assay [3], 36.3 µM; in assay [4] it was 11.1 µM.
Turning to `CC(=O)Nc1ccc(C(=O)NN2C(=O)CSC2c2ccc([N+](=O)[O-])cc2)cc1` (stereo not drawn), the TGI in assay [3] and in assay [4] was greater than 100 µM throughout.
Consider `CCc1cc2c(oc3cc4ccccc4cc32)c(=O)[nH]1`, for which the TGI in assay [2], in assay [3] and in assay [4] was greater than 10 µM throughout.
Turning to `O=C(O)CC1NC(/C(=C/c2ccccc2)NC(=O)c2ccccc2)OC1=O` (stereo not drawn), the TGI in assay [1] is greater than 100 µM; in assay [2] it was greater than 100 µM; in assay [3], greater than 100 µM; in assay [4] it was 56.4 µM.
Consider `Nc1ccc(Oc2ccc(C34CC5CC6C3CC3CC4C(C5)C6(c4ccc(Oc5ccc(N)cc5)cc4)C3)cc2)cc1`, for which the TGI is 48 µM in assay [1], 51.7 µM in assay [2], greater than 67.5 µM in assay [3] and greater than 100 µM in assay [4].
With `O=C(O)c1ccc(N=C(C(=Nc2ccc(C(=O)O)cc2)c2ccccc2)c2ccccc2)cc1`, the TGI in assay [2], in assay [3] and in assay [4] was greater than 100 µM each time.
For the molecule `CC(C)(C)[Si](C)(C)OCC1OC(n2ccc(N)nc2=O)C(O[Si](C)(C)C(C)(C)C)C1O[Si](C)(C)C(C)(C)C` (stereo not drawn), the figures for the TGI in assay [2], in assay [3] and in assay [4] were 3.65 µM, 7.89 µM and greater than 100 µM, respectively.
Consider `C1C2CC3CC1CC(Nc1nc(NC45CC6CC(CC(C6)C4)C5)nc(NC45CC6CC(CC(C6)C4)C5)n1)(C2)C3`, for which the TGI in assay [1], in assay [2], in assay [3] and in assay [4] was greater than 100 µM throughout.
With `C=C1C(=O)C[C@H]2C(=C)C(=O)O[C@@H]2C2C1CC[C@@]2(C)O` (stereo partly drawn), the TGI in assay [1] was 40.3 µM; in assay [2], greater than 100 µM; in assay [3], greater than 100 µM; in assay [4] it was 64.2 µM.
As for `O=C(NCC(=O)N1CCCC1C(=O)OC(=O)C1CCCN1C(=O)CNC(=O)OCc1ccccc1)OCc1ccccc1` (stereo not drawn), the TGI in assay [1], in assay [2], in assay [3] and in assay [4] was greater than 100 µM throughout.
For `CN(CC(=O)O)c1ncc2c(n1)-c1ccccc1SC2`, the TGI in assay [1], in assay [2], in assay [3] and in assay [4] was greater than 100 µM throughout.
`COCC1OC(Sc2ccccc2)C(O)C(OC)C1OC` (stereo not drawn): the TGI in assay [1], in assay [2], in assay [3] and in assay [4] was greater than 100 µM each time.
`CC1(c2cccs2)CC(c2cccs2)=C(C#N)C(=C(C#N)C#N)N1` (stereo not drawn): the TGI in assay [1] was 37 µM; in assay [2], 29.8 µM; in assay [3], 69.5 µM; in assay [4], 49.5 µM.
With `Cc1c([N+](=O)[O-])ccc2c(NCCCN(C)C)ccnc12`, the TGI in assay [1] is greater than 100 µM; in assay [2] it was 41.6 µM; in assay [3] it was 74.1 µM; in assay [4], greater than 100 µM.
`COc1cc(/C=C2\C[C@H]3[C@@H]4CCc5cc(O)ccc5[C@H]4CC[C@]3(C)C2=O)cc(OC)c1OC`: the results for the TGI in assay [1], in assay [2] and in assay [4] were 26.6 µM, 25.5 µM and 39.5 µM, respectively.
As for `CCOC(=O)c1c(NC(=O)c2cccs2)sc2c1CCCC2`, the TGI was greater than 100 µM in assay [1], greater than 100 µM in assay [2], 76.9 µM in assay [3] and greater than 100 µM in assay [4].
Turning to `COC(=O)C1=C(C)NC2=C(C(=O)c3ccccc32)C1c1cn(-c2ccccc2)nc1-c1ccccc1` (stereo not drawn), the TGI in assay [1], in assay [2], in assay [3] and in assay [4] was greater than 100 µM throughout.
As to `O=C(C=P(c1ccccc1)(c1ccccc1)c1ccccc1)c1ccc(-c2cccc([N+](=O)[O-])c2)s1`, the TGI in assay [1], in assay [2], in assay [3] and in assay [4] was greater than 100 µM each time.
As to `Nc1c2c(nc3cc(F)c(F)cc13)CCC2`, the TGI in assay [1], in assay [2], in assay [3] and in assay [4] was greater than 100 µM each time.
For `CCCn1c2ccccc2c2ccc3c(c21)C(=O)C=CC3=O`, the TGI is 6.1 µM in assay [1], greater than 8.03 µM in assay [2], greater than 10 µM in assay [3] and greater than 6.93 µM in assay [4].
Taken in the same sequence, the figures for `CCCCC1=NNC(=O)C1` were greater than 100 µM, greater than 100 µM, greater than 100 µM and greater than 100 µM.
The like results for `OCCCCCCCCCCCOc1ccc(C2OCC3(CO2)COC(c2ccc(OCCCCCCCCCCCO)cc2)OC3)cc1` (stereo not drawn) were, in that order, greater than 50 µM, greater than 50 µM, greater than 50 µM and greater than 50 µM.
The like results for `O=C(NC(Cc1c[nH]c2ccccc12)C(=O)Nc1ccc(Br)cc1)OCc1ccccc1` (stereo not drawn) were, in that order, 34.6 µM, 24.5 µM, 56.3 µM and 54.3 µM.
As for `CC(=O)Nc1ccc(N2C(=O)/C(=C\c3cccc(Oc4ccccc4)c3)S(=O)(=O)C2c2ccccc2)cc1` (stereo not drawn), the TGI in assay [1], in assay [2] and in assay [4] was greater than 100 µM in each case.
`Nc1ccc2c(c1)N(C(=O)c1cc3cc(NC(=O)c4cc5ccccc5o4)ccc3[nH]1)CC2CCl` (stereo not drawn): the TGI in assay [1] came out at 12.9 µM; in assay [2], 12.2 µM; in assay [3] it was 0.696 µM; in assay [4] it was 0.338 µM.
Taken in the same sequence, the figures for `CN(Cc1cnc2nc(N)nc(N)c2n1)c1ccc(C(=O)NC(CCC(=O)NCCC(P(=O)(O)O)P(=O)(O)O)C(=O)O)cc1` (stereo not drawn) were greater than 100 µM, greater than 100 µM, greater than 100 µM and greater than 100 µM.
For `COC(=O)CC(C#N)(OP1(=O)OC(c2ccccc2)C(C)N1C)c1ccccc1` (stereo not drawn), the TGI in assay [1] was 69.3 µM; in assay [2], greater than 100 µM; in assay [3] it was greater than 100 µM; in assay [4] it was greater than 100 µM.
Turning to `Cc1cc2c(cc1Cl)SC(NS(=O)(=O)c1ccc(Cl)cc1)=NS2(=O)=O`, the TGI in assay [1], in assay [3] and in assay [4] was greater than 100 µM in each case.
On to `CC(C)C(=O)[C@@]1(C)SC[C@H]2CCN=C21`, for which the TGI in assay [1], in assay [3] and in assay [4] was greater than 100 µM throughout.
For `CN=c1nc2sc3c(c2c(NC(=S)NC)s1)CCCC3`, the TGI in assay [1] is greater than 100 µM; in assay [2], greater than 100 µM; in assay [3] it was 97.4 µM.
Turning to `CNc1ccc(C(=O)CC(O)CCC(C)C2OC(=O)CC(O)CC(=O)CC(O)CC(O)CC(O)CC(O)CC3(O)CC(O)C(C(=O)NCCN(C)C)C(CC(OC4OC(C)C(O)C(NC(=O)CN5CCN(C)CC5)C4O)/C=C/C=C/C=C/C=C\C=C/C=C/C=C/C2C)O3)cc1` (stereo not drawn), the TGI in assay [1], in assay [2] and in assay [4] was greater than 100 µM throughout.

The record behind these values is PubChem BioAssay (NCI).
